BigSolDB 2.1

CCCSc1nc(N[C@@H]2C[C@H]2c2ccc(F)c(F)c2)c2nnn([C@@H]3C[C@H](OCCO)[C@@H](O)[C@H]3O)c2n1
solubility (mole fraction)
Conditions	273.15 K	278.15 K	283.15 K	288.15 K	293.15 K	298.15 K	303.15 K	308.15 K	313.15 K
in 2-butanone	0.0218	0.0269	0.0321	0.038	0.0439	0.051	0.0584	0.0673	0.0776
in acetonitrile	0.000876	0.00115	0.00144	0.00179	0.00217	0.0026	0.00309	0.00359	0.00416
in cyclohexanone	0.0265	0.0316	0.0374	0.0437	0.051	0.0578	0.0661	0.0744	0.0832
in ethanol	0.00315	0.0041	0.00503	0.00625	0.00747	0.00881	0.0105	0.0125	0.0149
in ethyl acetate	0.00409	0.00504	0.00608	0.00716	0.00855	0.0101	0.0118	0.0135	0.0157
in isobutanol	0.00148	0.00176	0.00209	0.00243	0.00284	0.00324	0.00373	0.00425	0.00484
in isopropanol	0.00251	0.00286	0.00325	0.00364	0.00404	0.00446	0.00496	0.00547	0.00599
in methanol	0.00494	0.00615	0.00741	0.0092	0.0114	0.014	0.0169	0.0203	0.0239
in n-butanol	0.00289	0.00363	0.0045	0.00542	0.00656	0.00768	0.00895	0.0103	0.0118
in n-octanol	0.0021	0.00233	0.00263	0.00292	0.00327	0.00367	0.00406	0.00456	0.0051
in n-propanol	0.00268	0.00327	0.00389	0.00462	0.00535	0.00612	0.00692	0.00776	0.00872
in toluene	3e-05	3.8e-05	4.9e-05	6.3e-05	8e-05	0.000102	0.00013	0.00016	0.000196
